The nature of assay [1]: Ferric reducing antioxidant power (FRAP) assay. The procedure:
The antioxidant property of different tryptamine derivatives were assessed and compared with the known antioxidants for potency. […] The FRAP assay is based on the measurement of the ability of the substance to reduce Fe^3+ to Fe^2+, greater the reducing ability greater the anti oxidant property. Antioxidants reduce Fe^3+-TPTZ in to blue colored Fe^2+-TPTZ complex, which results in an increase in the absorbance at 595 nm giving a FRAP value. […] Absorbance changes at different time intervals (FIG. 6) as well as at different concentrations (FIG. 7) at time 6 min in the presence of different compounds at 595 nm were measured. FRAP values at 6 min and 65 min were calculated from different tryptamine derivatives and some known antioxidant (Table 1). […] DPPH assay based on the DPPH free radicals scavenging power of the antioxidant molecules. Higher the scavenging power higher will be the antioxidant property.
The assay was performed in a 96-well microplate. FRAP reagent was prepared by mixing of 10 ml acetate buffer (200 mM, pH-3.6), 1 ml of 2,4,6-tris(2-pyridyl)-s-triazine (TPTZ) solution (10 mM in 40 mM HCl) and 1 ml of ferric chloride solution (20 mM) in distilled water. For 1 h the mixture was kept in a water bath at 37° C. In 96-well microplates, 25 μL of the compounds under investigation dissolved (in methanol, some compound dissolved in water) at different concentrations in the range 1-25 μM was placed in triplicate and freshly prepared FRAP solution (175 μL) was added to this sample. A micro plate reader monitored the absorbance at 595 nm at different time intervals for up to 150 min. The absorbance of a mixture 175 μL TRAP sol and 25 μL methanol or water was taken which was subtracted from the absorbance of the samples at each time interval to calculate the absorbance change (ΔA). The FRAP value at time interval t (FRAP valuet) was calculated according to the formula: FRAP valuet(M)=(ΔatFl/ΔatFe^2+)×10^−5 Where ΔatFl is the absorbance change after the time interval t (6 and 65 min) relative to the tested flavonoid at the concentration of 10 μM and ΔatFe^2+ is the absorbance change at the same time interval relative to ferrous sulfate at the same concentration (Pal, C; et al. Free Radic Biol Med, 49(2), 258-267, 2010, Firuzi, O; et al. Biochim. Biophys. Acta 1721:174-184; 2005).

In assay [2] the test system is NSAIDs-induced mitochondrial oxidative stress. The experiment in a line: Mitochondrial oxidative stress in gastric mucosa (protein carbonyl, lipid peroxidation, total thiol). The class given is in vivo, rats. The following applies: NSAIDs (indomethcin, diclofenac)-induced; pretreatment. The method, then:
Commercially available kit (Biochain) was used for the isolation of mitochondria from gastric mucosal cells. In brief, scrapped gastric mucosa was finely minced on ice in a petridish containing mitochondria extraction buffer. Ultra-Turrax T-25 homogenizer was used to homogenize the cells. To remove nuclei and unbroken cells the homogenate was first centrifuged at 800×g for 10 min and then finally subjected to 12000×g for 15 min to get the mitochondrial fraction.
Mitochondrial oxidative stress was performed earlier through measurement protein carbonyl formation, lipid peroxidation and measurement of total thiol content (Pal, C; et al. Free Radic Biol Med, 49(2), 258-267; 2010, Maity, P.; et al. J. Biol. Chem. 284:3058-3068; 2009, Maity, P.; et al. J. Biol. Chem. 283:14391-14401; 2008, Maity, P.; et al. J. Pineal Res. 46:314-323; 2009).
Mitochondrial oxidative stress was studied earlier through the measurement of mitochondrial total thiol depletion, lipid peroxidation and protein carbonyl formation. In brief, thiol content was measured by its reaction with 5-5′-dithionitrobenzoic acid (DTNB) to yield the yellow chromophore of TNB (thionitrobenzoic acid), which was measured at 412 nm Mitochondrial lipid peroxidation was assayed by adding 1 ml of the mitochondrial fraction in 0.9% normal saline to 2 ml of TBA-TCA mixture (0.375% w/v and 15% w/v, respectively) in 0.25 N HCl and was mixed and boiled for 15 min which was then cooled and after centrifugation, the absorbance of the supernatant was read at 535 nm. Tetraethoxypropane was used as standard. Protein carbonyl was measured by following the standard colorimetric method that measures the binding of dinitrophenylhydrazine (DNP) to the carbonyl group and was quantified by taking the absorbance at 362 nm.

The next assay concerns caspase-9. The experiment in a line: Caspase-9 activity in gastric mucosal tissue. Type of assay: in vivo, rats. The note with it: gastric mucosa. The method, then:
From cytosolic fraction of gastric mucosal tissues, caspase-9 and caspse-3 activities were measured using commercially available kit (Biovision, Mountain View, Calif., USA and Sigma respectively). In brief, the gastric mucosa was homogenized in caspase lysis buffer (provided with the respective kit). The homogenate was centrifuged at 16,000×g for 15 min. The supernatant was collected and mixed with 50 μl of 2× reaction buffer (provided with the respective kit). This was followed by addition of the substrates: […] (200 μM final concentration) for caspase-3 and LEHD-pNA (200 μM final concentration) for caspase-9. The mixture was incubated at 37° C. for 1 hr and absorbance was taken at 405 nm (Maity, P.; et al. J. Biol. Chem. 284:3058-3068; 2009, Maity, P.; et al. J. Biol. Chem. 283:14391-14401; 2008, Maity, P.; et al. J. Pineal Res. 46:314-323; 2009).

Another assay relates to free iron. The experiment in a line: Free iron (Phen Green SK). The class given is cell-based, rat. The note with it: in vitro cultured cell. The procedure: Isolated mucosal cells from both control and indomethacin-treated cultured gastric mucosa were used for free iron localization using Phen Green SK, an iron-sensitive fluorescence probe following the protocol as described in the product catalogue (Maity, P.; et al. J. Biol. Chem. 284:3058-3068; 2009). Cells were first incubated with Phen Green SK (20 μm) for 15 min at 37° C. in the dark. After the incubation, cells were washed with HBSS and used for fluorescence microscopy (Leica, DM-2500, Leica Microsystems). Staining of pheen Green SK was visualized using green filter.

As for `O=C(NCCc1c[nH]c2ccc(O)cc12)c1cc(O)c(O)c(O)c1` [Compound 3a, 3,4,5-trihydroxy-N-(2-(5-hydroxy-1H-indol-3-yl)ethyl)benzamide], the “FRAP Value6 min (μM) M ± SD” value in assay [1] (6 min, compound at 10 μM relative to ferrous sulfate) is 39.51 ± 2.7 µM. Besides, the “FRAP Value65 min (μM) M ± SD” value in assay [1] (65 min, compound at 10 μM relative to ferrous sulfate) was 60.61 ± 7.3 µM. Further, the “reducing ability (Fe^3+ to Fe^2+) / antioxidant property in words” value in assay [1] (compared to other tryptamine derivatives and known antioxidants) is on record as “greater reducing ability”. Besides, in assay [2], the “depletion of mitochondrial thiol” value is reported as “protects”, the “oxidation of mitochondrial protein (protein carbonyl formation)” value is on record as “protects” and the “peroxidation of mitochondrial lipid” value is reported as “protects”. Further, in the assay on caspase-9, the “activation of caspase-9 during indomethacin treatment” value is on record as “prevents the activation of caspase-9”. The “intramitochondrial iron chelation (Phen Green SK)” value in the assay with free iron is on record as “chelates the intramitochondrial iron”.

These data come from patent publication US8901317B2, “Tryptamine derivatives, their preparation and their use in gastropathy” (Council of Scientific & Industrial Research, priority 2010, dated 2014).
